Positions of bridges follow the written chain, without caps; N, C: chain ends. Non-standard residues stand in square brackets, D forms with d. Residues, ends and D or L forms follow the SMILES beside them. *: point of attachment. Ileψ(thiazoline)Cys = CC[C@H](C)[C@H](N)C1=N[C@H](C(=O)*)CS1; dOrn = NCCC[C@@H](N)C(=O)O
What was measured:
Culture A80789 = assay: Antibiotic sensitivity disc test on the producing culture; type: cell-based, Streptomyces hygroscopicus; details: ISP No. 2 agar
Protocol: Resistance to antibiotics was measured by padding antibiotic sensitivity discs onto the surface of seeded ISP No. 2 agar plates. Resistance was scored as (+) when no zone of inhibition was observed and as (-) when a zone of inhibition was observed.

coccidiosis = details: alone; Science, 122: 244 (1955); cited from earlier work

## CC[C@H](C)[C@H](N)C1=N[C@H](C(=O)N[C@@H](CC(C)C)C(=O)N[C@H](CCC(=O)O)C(=O)N[C@H](C(=O)N[C@H]2CCCCNC(=O)[C@H](CC(N)=O)NC(=O)[C@@H](CC(=O)O)NC(=O)[C@H](Cc3cnc[nH]3)NC(=O)[C@@H](Cc3ccccc3)NC(=O)[C@H]([C@@H](C)CC)NC(=O)[C@@H](CCCN)NC2=O)[C@@H](C)CC)CS1 [bacitracin] ({Ileψ(thiazoline)Cys}-L[dE]IK[dOrn]I[dF]H[dD]N; lactam 4-C)
Culture A80789; disc 10 units
  Resistance of culture to antibiotic: sensitive

## CC1(C)S[C@@H]2[C@H](NC(=O)Cc3ccccc3)C(=O)N2[C@H]1C(=O)O [penicillin G]
Culture A80789; disc 10 units
  Resistance of culture to antibiotic: resistant

## CN(C)[C@@H]1C(=O)C(C(N)=O)=C(O)[C@@]2(O)C(=O)C3=C(O)c4c(O)cccc4[C@@](C)(O)[C@H]3C[C@@H]12 [tetracycline]
Culture A80789; disc 30 mcg
  Resistance of culture to antibiotic: sensitive

## CC(=O)OCC1=C(C(=O)O)N2C(=O)[C@@H](NC(=O)Cc3cccs3)[C@H]2SC1 [cephalothin]
Culture A80789; disc 30 mcg
  Resistance of culture to antibiotic: sensitive

## O=C(Nc1ccc([N+](=O)[O-])cc1)Nc1ccc([N+](=O)[O-])cc1 [4,4'-dinitrocarbanilide]
coccidiosis
  anticoccidial activity: exhibits anticoccidial activity

## NC[C@H]1O[C@H](O[C@H]2[C@H](O)[C@@H](O[C@H]3O[C@H](CO)[C@@H](O)[C@H](N)[C@H]3O)[C@H](N)C[C@@H]2N)[C@H](N)C[C@@H]1O [tobramycin]
Culture A80789; disc 10 mcg
  Resistance of culture to antibiotic: sensitive

## CN[C@H](CC(C)C)C(=O)N[C@H]1C(=O)N[C@@H](CC(N)=O)C(=O)N[C@H]2C(=O)N[C@H]3C(=O)N[C@H](C(=O)N[C@H](C(=O)O)c4cc(O)cc(O)c4-c4cc3ccc4O)[C@H](O)c3ccc(c(Cl)c3)Oc3cc2cc(c3O[C@@H]2O[C@H](CO)[C@@H](O)[C@H](O)[C@H]2O[C@H]2C[C@](C)(N)[C@H](O)[C@H](C)O2)Oc2ccc(cc2Cl)[C@H]1O [vancomycin]
Culture A80789; disc 30 mcg
  Resistance of culture to antibiotic: sensitive
